Literature values, collected in patent US20170266293A1, “METHODS OF TREATING CANCERS WITH THERAPEUTIC NANOPARTICLES” (PFIZER INC., priority 2011, published 2017).

System: cholangiocarcinoma
Details: previous studies, Pazdur, Am. J. Clin. Oncol. 1999

## CC(=O)O[C@@]12CO[C@@H]1C[C@H](O)[C@@]1(C)C(=O)[C@H](O)C3=C(C)[C@@H](OC(=O)[C@H](O)[C@@H](NC(=O)OC(C)(C)C)c4ccccc4)C[C@@](O)([C@@H](OC(=O)c4ccccc4)[C@H]21)C3(C)C [docetaxel]
  Efficacy for the treatment of cholangiocarcinoma: ineffective
